Several values for one entry are separate records, joined by “and”; a condition that tells them apart may be missing. Identical values can stand only once. Like-named read-outs stand apart in the source and are kept apart here.
What was measured:
[1] = cited from earlier work
[2] = type: in vivo, human; settings: for AUC: AUC0–tn; for AUC(0-inf): AUC0–∞
[3] = type: in vivo, human; settings: for CL/F, arithmetic mean: N = 24; for AUC0‐∞, ratio amenamevir with ritonavir vs amenamevir alone / Cmax, ratio amenamevir with ritonavir vs amenamevir alone: ritonavir 600 mg; for AUC: AUC0‐∞; for AUC / Cmax: LS mean, n = 24; for Tmax: po
[4] = saquinavir with a single concomitant dose of 600‐mg ritonavir; cited from earlier work
[5] = tested on: human multidrug resistance transporter P‐glycoprotein (P‐gp); settings: ^14C‐amenamevir, cells expressing P‐gp; ref unpublished data held by Maruho; cited from earlier work
[6] = tested on: cytochrome P450 (CYP) 3A4/5; settings: human liver microsomes; ref unpublished data held by Maruho; cited from earlier work
[7] = tested on: OATP1B1; settings: ^14C‐amenamevir, ref unpublished data held by Maruho; cited from earlier work
[8] = tested on: OAT1; settings: ^14C‐amenamevir, ref unpublished data held by Maruho; cited from earlier work
[9] = tested on: CYP3A4; settings: human hepatocytes, 1 to 100 μM; ref unpublished data held by Maruho; cited from earlier work
[10] = tested on: CYP3A4/5; settings: read-out: half maximal inhibitory concentration, very weak or no inhibitory activity, ref unpublished data held by Maruho; cited from earlier work
[11] = single oral dose of 200 mg ^14C‐amenamevir; ref unpublished data held by Maruho; cited from earlier work
[12] = tested on: acyclovir‐resistant VZV strains; settings: in vitro; cited from earlier work
[13] = tested on: OATP1B3; settings: ^14C‐amenamevir, ref unpublished data held by Maruho; cited from earlier work
[14] = type: in vivo, human; settings: for CL/F, arithmetic mean / Tmax: plasma; for CL/F, arithmetic mean: n = 24; for Tmax: male, human, po
[15] = tested on: organic cation uptake transporter‐2; settings: ^14C‐amenamevir, organic cation uptake transporter‐2–expressing cells; ref unpublished data held by Maruho; cited from earlier work
[16] = amenamevir plus ketoconazole vs amenamevir alone; cited from earlier work
[17] = tested on: OAT3; settings: ^14C‐amenamevir, ref unpublished data held by Maruho; cited from earlier work
[18] = ^14C‐amenamevir in humans; ref unpublished data held by Maruho; cited from earlier work
[19] = midazolam with rifampicin as inducer
[20] = Day 12 midazolam 7.5 mg with amenamevir 400 mg vs Day 1 midazolam alone
[21] = Day 19, midazolam 7.5 mg alone, 7 days after last amenamevir dose, n = 18
[22] = after amenamevir 400 mg once daily for 10 days
[23] = male, human, plasma, oral, arithmetic mean, Day 12, midazolam 7.5 mg with amenamevir 400 mg (last of 10 daily doses), n = 18
[24] = male, human, plasma, oral, geometric mean, Day 12, midazolam 7.5 mg with amenamevir 400 mg (last of 10 daily doses), n = 18
[25] = male, human, plasma, oral, LS mean, Day 12, midazolam 7.5 mg with amenamevir 400 mg (last of 10 daily doses), n = 18
[26] = amenamevir 400 mg with ritonavir 600 mg
[27] = amenamevir 1200 mg with ritonavir 600 mg
[28] = amenamevir 400‐mg or 1200‐mg with single 600‐mg dose of ritonavir
[29] = male, human, plasma, 1200 mg, amenamevir 1200 mg alone
[30] = male, human, plasma, amenamevir 400 mg with ritonavir 600 mg
[31] = male, human, plasma, amenamevir 1200 mg with ritonavir 600 mg

Cc1ncc2n1-c1ccc(Cl)cc1C(c1ccccc1F)=NC2 [midazolam]
mean elimination half‐life ([1]; midazolam before rifampicin): 3.2 h | reduction of AUC [1, 19]: 64 fold | reduction of Cmax [1, 19]: 27 fold | reduction in plasma concentrations of midazolam ([2]; CYP3A‐inducing effect of amenamevir): 52% | CL/F, arithmetic mean ([2]; Day 1, midazolam 7.5 mg oral alone (control), plasma, n = 18): 68.5 L/h | CL/F, arithmetic mean ([2]; Day 12, midazolam 7.5 mg with amenamevir 400 mg (last of 10 daily doses), n = 18): 134.3 L/h | AUC0–∞, LS mean ratio vs control (90%CI) [2, 20]: ~51% | Cmax, LS mean ratio vs control (90%CI) [2, 20]: about 68% | CL/F, arithmetic mean [2, 21]: 63 L/h | Tmax, median [2, 21]: 0.5 h | AUC0–∞, LS mean ratio vs control ([2]; Day 19 midazolam alone vs Day 1 midazolam alone): 110% | CL/F, arithmetic mean ([2]; Day 26, midazolam 7.5 mg alone, 14 days after last amenamevir dose, n = 18): 65.2 L/h | AUC0–∞, LS mean ratio vs control ([2]; Day 26 midazolam alone vs Day 1 midazolam alone): 108% | reduction of Cmax of midazolam [2, 22]: about 32% | reduction of average concentrations (AUC) of midazolam [2, 22]: about 51% | AUC [2, 23]: 59 ng·h/mL | AUC [2, 24]: 56.7 ng·h/mL | AUC(0-inf) [2, 25]: 58 ng·h/mL | AUC(0-inf) [2, 23]: 60.3 ng·h/mL | AUC(0-inf) [2, 24]: 58 ng·h/mL | Cmax [2, 25]: 23 ng/mL | Cmax [2, 23]: 24.5 ng/mL | Cmax [2, 24]: 23.4 ng/mL | half-life ([2]; male, human, plasma, oral, t1/2, arithmetic mean, Day 12, midazolam 7.5 mg with amenamevir 400 mg (last of 10 daily doses), n = 18): 3.7 h | Tmax ([2]; male, human, plasma, po, 7.5 mg): 0.5 h

OCc1ncc2n1-c1ccc(Cl)cc1C(c1ccccc1F)=NC2 [1‐hydroxymidazolam]
plasma concentrations, influence of coadministration of amenamevir ([2]; metabolite after midazolam 7.5 mg with amenamevir 400 mg): not influenced

CC(C)c1nc(CN(C)C(=O)N[C@H](C(=O)N[C@@H](Cc2ccccc2)C[C@H](O)[C@H](Cc2ccccc2)NC(=O)OCc2cncs2)C(C)C)cs1 [ritonavir, reference compound]
t1/2, geometric mean ([3]; ritonavir 600 mg single dose with amenamevir 400 mg, n 24): 4.5 h

CC(C)(C)NC(=O)[C@@H]1C[C@@H]2CCCC[C@@H]2CN1C[C@@H](O)[C@H](Cc1ccccc1)NC(=O)[C@H](CC(N)=O)NC(=O)c1ccc2ccccc2n1 [saquinavir]
increase of plasma concentrations [4]: > 50 fold

Cc1cccc(C)c1N(CC(=O)Nc1ccc(-c2ncon2)cc1)C(=O)C1CCS(=O)(=O)CC1 [amenamevir]
substrate of the human multidrug resistance P‐gp transporter [5]: is a substrate | role of CYP3A4/5 in the metabolism of amenamevir [6]: main isozymes | uptake into transporter‐expressing cells [7]: no uptake | uptake into transporter‐expressing cells [8]: no uptake | induction of CYP3A4 [9]: showed the potential to induce CYP3A4 | IC50 [10]: > 100 µM | ^14C radioactivity recovered in feces [11]: 74.6% | activity against acyclovir‐resistant VZV strains [12]: good activity | uptake into transporter‐expressing cells [13]: no uptake | CL/F, arithmetic mean ([3]; amenamevir 400 mg single oral dose alone, plasma): 18.3 L/h | geometric mean AUC0‐∞, times higher than after amenamevir alone [3, 26]: about 2.6 times higher | geometric mean Cmax, times higher than after amenamevir alone [3, 26]: about 1.4 times higher | CL/F, arithmetic mean ([3]; amenamevir 400 mg with single dose ritonavir 600 mg): 6.8 L/h | AUC0‐∞, ratio amenamevir with ritonavir vs amenamevir alone ([3]; amenamevir 400 mg): 260% | Cmax, ratio amenamevir with ritonavir vs amenamevir alone ([3]; amenamevir 400 mg): 136% | CL/F, arithmetic mean ([3]; amenamevir 1200 mg single oral dose alone, plasma): 25.7 L/h | geometric mean AUC0‐∞, times higher than after amenamevir alone [3, 27]: ~3.3 times higher | geometric mean Cmax, times higher than after amenamevir alone [3, 27]: ~1.6 times higher | CL/F, arithmetic mean ([3]; amenamevir 1200 mg with single dose ritonavir 600 mg): 7.6 L/h | AUC0‐∞, ratio amenamevir with ritonavir vs amenamevir alone ([3]; amenamevir 1200 mg): 334% | Cmax, ratio amenamevir with ritonavir vs amenamevir alone ([3]; amenamevir 1200 mg): 163% | increase in AUC [3, 28]: > 3 fold | increase in Cmax [3, 28]: about 1.5 fold | AUC ([3]; male, human, plasma, 400 mg, amenamevir 400 mg alone): 23200 ng·h/mL | AUC [3, 29]: 48500 ng·h/mL | Cmax [3, 29]: 3800 ng/mL | AUC [3, 30]: 60200 ng·h/mL | AUC [3, 31]: 162000 ng·h/mL | Cmax [3, 30]: 2520 ng/mL | Cmax [3, 31]: 6210 ng/mL | half-life ([3]; male, human, plasma, geometric mean elimination half‐life, amenamevir alone, irrespective of the dose (400 mg and 1200 mg)): ~7 h | Cmax ([3]; male, human, plasma, oral, 400 mg, amenamevir 400 mg alone): 1850 ng/mL | Tmax ([3]; male, human, plasma, 400 mg): 3 h | Tmax ([3]; male, human, plasma, 1200 mg): 3 h | treatment‐emergent adverse event headache, frequency ([3]; with 400‐mg amenamevir (ritonavir study group)): 16.7% | treatment‐emergent adverse event headache, frequency ([3]; with 1200‐mg amenamevir (ritonavir study group)): 29.2% | CL/F, arithmetic mean ([14]; amenamevir 400 mg single oral dose alone (control)): 17.7 L/h | CL/F, arithmetic mean ([14]; amenamevir 1200 mg single oral dose alone (control)): 25.7 L/h | geometric mean (90%CI) AUC0‐∞ as % of that after amenamevir alone ([14]; amenamevir 1200 mg with cyclosporine 100 mg twice daily): ~79(73, 85) % and ~79% | Tmax ([14]; 400 mg): 3 h | Tmax ([14]; 1200 mg): 3 h | uptake into transporter‐expressing cells [15]: no uptake | geometric mean ratio for AUCinf (90%CI) [16]: 2.58 (90%CI, 2.32‐2.87) | geometric mean ratio for Cmax (90%CI) [16]: 1.30 (90%CI, 1.17‐1.45) | uptake into transporter‐expressing cells [17]: no uptake | plasma protein binding [18]: about 75%

Reference: PMC6585933 (Clinical Pharmacology in Drug Development, 2018)
